From patent US11517598B2 (priority 2016, dated 2022)
“Also recorded” adds a separate entry of the source. Like-named read-outs stand apart in the source and are kept apart here.

Assays:
[1] = system: oncolytic VSVΔ51 in 786-0 renal carcinoma cells
[2] = system: Sindbis virus in 786-0 cells; type: cell-based, human
[3] = system: VSVΔ51-GFP in CT26WT and DBT tumor cores; type: cell-based, mouse
CT26-LacZ tumors = conditions: mouse, in vivo
[4] = system: VSVΔ51 matrix (M) mRNA in 786-0 cells; type: cell-based, human
CT26WT tumors = conditions: mouse
[5] = system: Measles virus in 786-0 cells; type: cell-based, human
[6] = system: CT26WT, 4T1, DBT, and Pan02 tumors; conditions: mouse, in vivo
[7] = mouse, in vivo
bilateral DBT tumors = conditions: mouse, in vivo
[8] = system: various human and rodent cancer cell lines
IFITM1 = type: cell-based, human
IFITM1, sequence (P13164 whole entry): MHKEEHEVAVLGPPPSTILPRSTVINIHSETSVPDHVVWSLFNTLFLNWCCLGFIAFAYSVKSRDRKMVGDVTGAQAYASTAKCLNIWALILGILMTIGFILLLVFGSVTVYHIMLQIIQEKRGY

VSVwt in 786-0 cells = type: cell-based, human
STAT1 = type: cell-based, human
[9] = system: VSVΔ51-GFP in normal lung, muscle and spleen tissue cores; type: cell-based, mouse
[10] = system: CXCL9 in various human cancer cell lines; type: cell-based
[11] = system: VSVΔ51 in GM38 fibroblasts; type: cell-based, human
[12] = system: VSVΔ51 matrix (M) mRNA in CT26-WT colon cancer cells; type: cell-based, mouse
[13] = system: HSV-1 (mutant N212) in 786-0 cells; type: cell-based, human
[14] = system: cytokine, chemokine and IFN stimulated gene expression in 786-0 cells; type: cell-based, human
STAT2 = type: cell-based, human

With “potassium permanganate [Manganese, reference compound]” the “VSVΔ51 growth (viral titer, GFP positive cell counts)” value [1] was “neither Manganese, Molybdene, or Tungsten oxide salts could enhance VSVΔ51 growth”.
For Sodium orthovanadate, the “yield of Sindbis virus” value [2] was “improved”, the “growth of VSVΔ51-GFP in tumor cores (fluorescence)” value [3] was “robustly increased the growth of the virus in tumor cores” and the “enhancing effect on survival” value (CT26-LacZ tumors) was “completely abrogated”. For the same compound, the “VSVΔ51 matrix (M) protein mRNA and/or viral genomes” value [4] was “increased the production of VSVΔ51 matrix (M) protein mRNA and/or viral genomes”, the “T-cells within the tumor” value (CT26WT tumors; in vivo) was “increased accumulation of T-cells within the tumor” and the “re-challenge of cured mice with the same cancer cells” value (CT26WT tumors; in vivo) was “became immune to re-challenge”. For the same compound, the “in vivo virus-enhancing activity at pH 7” value (CT26WT tumors; pH 7) was “retained its activity”, the “yield of Measles virus” value [5] was “improved” and the “survival, combination with VSVΔ51” value [6] was “significantly improved survival; also recorded: significantly prolonged over virus alone”. For the same compound, the “virus-associated luciferase gene expression (IVIS)” value [6] was “robustly enhanced virus-associated luciferase gene expression”, the toxicity [7] was “evidence of toxicity was observed” and the toxicity ([7]; pH 7) was “greatly reduced”. For the same compound, the “effect on viral growth when given post infection” value [1] was “close to nil”, the “impact on viral growth with pre-treatment time” value [1] was “increasingly evident with increasing pre-treatment time” and the “number of virus-infected cells (GFP)” value [1] was “marked increase in the number of virus-infected cells”. For the same compound, the “pro-viral activity with metal chelating agent” value [1] was “abrogated upon inclusion of L-Ascorbic Acid”, the “viral output (viral titer by plaque assay)” value [1] was “significantly increase viral output” and the “virus-enhancing activity at different pH (protonation state)” value [1] was “had no impact on its activity”. For the same compound, the “yield of VSVΔ51 in single and multi-step growth curves” value [1] was “more robustly enhanced the yield of VSVΔ51 when provided at low multiplicity of infection (MOI) compared to high MOI”, the “tumor regression with monotherapy” value (bilateral DBT tumors) was “some tumors did regress” and the virus-associated luminescence (bilateral DBT tumors) was “uniquely enhanced by vanadate in the injected tumors on the right side”. For the same compound, the “cytotoxicity (cell viability) with VSVΔ51 co-infection” value [8] was “A similar effect”, the “protein expression levels of IFITM1” value (IFITM1) was “potently repressed” and the wtVSV yield (VSVwt in 786-0 cells) was “modest improvements in wtVSV yield”. For the same compound, the “IFN-β induced phosphorylation of STAT1” value (STAT1) was “not altered by treatment with vanadate”, the “IFNβ-induced STAT1 phosphorylation and nuclear accumulation” value (STAT1) was “did not similarly affect STAT1” and the “localisation of activated STAT1 (immunofluorescence)” value (STAT1) was “translocated to the nucleus”. For the same compound, the “phosphorylation of STAT1 at baseline” value (STAT1) was “increased by vanadate at baseline”, the “growth of VSVΔ51-GFP in normal tissue cores (fluorescence)” value [9] was “not in normal tissue cores” and the “CXCL9 secretion (ELISA)” value [10] was “vanadate-mediated increase”. The “VSVΔ51 viral growth in normal cells” value [11] was “viral growth was not enhanced”, the “VSVΔ51 matrix (M) protein mRNA and/or viral genomes” value [12] was “increased the production of VSVΔ51 matrix (M) protein mRNA and/or viral genomes” and the HSV-1 growth [13] was “robustly inhibited”. For the same compound, the “gene set-enrichment (GOrilla), compound alone” value [14] was “induced inflammatory responses, and immune system processes”, the “IFNβ-induced phosphorylation of STAT2” value (STAT2) was “inhibited the IFNβ-induced phosphorylation of STAT2” and the STAT2 nuclear accumulation (STAT2) was “reduced its nuclear accumulation”. For the same compound, the “localisation of STAT-2 (immunofluorescence)” value (STAT2) was “remained mostly in the cytoplasm”.
In the case of Vanadium(V) oxytriethoxide [VOx], the “VSVΔ51 growth (viral titer, GFP positive cell counts)” value [1] was “effectively enhanced VSVΔ51 growth”.
For Vanadium(IV) oxide sulfate hydrate [VS], the “VSVΔ51 growth (viral titer, GFP positive cell counts)” value [1] was “effectively enhanced VSVΔ51 growth”.
In the case of Tungsten [reference compound], the “VSVΔ51 growth (viral titer, GFP positive cell counts)” value [1] was “neither Manganese, Molybdene, or Tungsten oxide salts could enhance VSVΔ51 growth”.
For Ammonium metavanadate, the “VSVΔ51 growth (viral titer, GFP positive cell counts)” value [1] was “effectively enhanced VSVΔ51 growth”.
For `CC(=O)N[C@@H](CS)C(=O)O` [NAC, N-acetyl-L-cysteine, reference compound], the “effect of NAC on vanadate-enhanced viral spread (viral titer)” value [1] was “did not abrogate vanadate's capacity to enhance viral spread”.
In the case of “Chromium(VI) oxide [Chromium trioxide, reference compound]”, the “VSVΔ51 growth (viral titer)” value [1] was “did enhance viral growth but only at a single dose tested” and the “toxicity (not shown)” value [1] was “highly toxic in comparison to orthovanadate”.
With Bis(maltolato) oxovanadium(IV) [BMOV] the “VSVΔ51 growth (viral titer, GFP positive cell counts)” value [1] was “effectively enhanced VSVΔ51 growth”.
